Experimental data taken from the supplement of paper PMC11061612.

How the values were obtained:
Assay in all cases: combination Emax (second highest fraction inhibited in the dose matrix, 72 h); higher = more inhibition; extreme values may be limits of the assay
[1] = test system: SCC-4 (Oral Cavity Carcinoma)
Method in brief: (§1)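 Cell lines in DMEM/F12 or RPMI with 10% FBS were plated in 1536-well plates, held 24 hours at 37°C, 5% CO2, then given two-drug dose matrices for 72 hours (DMSO typically 0.2%). Viability was read by CellTiter-Glo 2.0 luminescence and scaled as inhibition from 0 (vehicle wells) to 1 (blank wells). Combination Emax is the second-highest inhibition in the matrix; Bliss excess is observed combination effect minus expected EA + EB − EA·EB, EA and EB being single-agent effects.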

UACC-257 (Melanoma) = test system: UACC-257 (Melanoma)
Method in brief: as §1

WM35 (Melanoma) = test system: WM35 (Melanoma)
Method in brief: as §1

NCI-H2373 (Mesothelioma) = test system: NCI-H2373 (Mesothelioma)
Method in brief: as §1

[2] = test system: SKG-IIIa (Cervical Carcinoma)
Method in brief: as §1

[3] = test system: NMC-G1 (Low Grade Glioma)
Method in brief: as §1

[4] = test system: OVCAR-3 (Ovarian Carcinoma)
Method in brief: as §1

[5] = test system: OAW-28 (Ovarian Carcinoma)
Method in brief: as §1

[6] = test system: C-33-A (Cervical Carcinoma)
Method in brief: as §1

[7] = test system: SNU-C2B (Colorectal Carcinoma)
Method in brief: as §1

[8] = test system: BHT-101 (Thyroid Gland Carcinoma)
Method in brief: as §1

[9] = test system: NCI-H1341 (Small Cell Lung Carcinoma)
Method in brief: as §1

[10] = test system: DBTRG-05MG (Glioblastoma)
Method in brief: as §1

[11] = test system: NCI-H596 (Other Solid Carcinomas)
Method in brief: as §1

[12] = test system: KP-4 (Pancreatic Carcinoma)
Method in brief: as §1

IST-MEL1 (Melanoma) = test system: IST-MEL1 (Melanoma)
Method in brief: as §1

[13] = test system: LS-1034 (Colorectal Carcinoma)
Method in brief: as §1

T47D (Breast Carcinoma) = test system: T47D (Breast Carcinoma)
Method in brief: as §1

[14] = test system: COR-L88 (Small Cell Lung Carcinoma)
Method in brief: as §1

[15] = test system: MM1S (Plasma Cell Myeloma)
Method in brief: as §1

Row | SMILES | combination Emax [1] | combination Emax (UACC-257 (Melanoma)) | combination Emax (WM35 (Melanoma)) | combination Emax (NCI-H2373 (Mesothelioma)) | combination Emax [2] | combination Emax [3] | combination Emax [4] | combination Emax [5] | combination Emax [6] | combination Emax [7] | combination Emax [8] | combination Emax [9] | combination Emax [10] | combination Emax [11] | combination Emax [12] | combination Emax (IST-MEL1 (Melanoma)) | combination Emax [13] | combination Emax (T47D (Breast Carcinoma)) | combination Emax [14] | combination Emax [15]
1 | COc1cccc(OCCCN)c1-c1cc(Nc2cnc(C#N)cn2)n[nH]1 [Prexasertib] + C=CCn1c(=O)c2cnc(Nc3ccc(N4CCN(C)CC4)cc3)nc2n1-c1cccc(C(C)(C)O)n1 [AZD1775] (first compound max 1 µM, partner max 1 µM) | 0.665 | 0.48 | 0.819 | 0.497 | 0.527 | 0.384 | 0.885 | 0.569 | 0.985 | 0.676 | 0.881 | 0.982 | 0.331 | 0.65 | 0.8 | 0.812 | 0.835 | 0.704 | 0.853 | 0.963
2 | CN(CCO)CC[C@H](CSc1ccccc1)Nc1ccc(S(=O)(=O)NC(=O)c2ccc(N3CCC([C@@H](O)c4ccccc4-c4ccc(Cl)cc4)CC3)cc2)cc1S(=O)(=O)C(F)(F)F [AZD4320] + C[C@@H]1COCCN1C2=NC(=NC(=C2)C3(CC3)[S@](=N)(=O)C)C4=C5C=CNC5=NC=C4 [AZD6738] (first compound max 1 µM, 7x7, partner max 10 µM) | 0.872 | 0.186 | 0.367 | 0.672 | 0.536 | 0.876 | 0.555 | 0.957 | 0.928 | 0.636 | 0.877 | 1 | 0.834 | 0.425 | 0.487 | 0.941 | 0.721 | 0.324 | 0.992 | 1
3 | Cc1c2c(nn1C)CSCc1cc(n(C)n1)CSc1cc(c3ccccc3c1)OCCCc1c(C(=O)O)n(C)c3c-2c(Cl)ccc13 [AZD5991] + C=CCn1c(=O)c2cnc(Nc3ccc(N4CCN(C)CC4)cc3)nc2n1-c1cccc(C(C)(C)O)n1 [AZD1775] (first compound max 1 µM, partner max 1 µM) | 0.715 | 0.294 | 0.371 | 0.394 | 0.377 | 0.425 | 0.835 | 0.347 | 0.945 | 0.497 | 0.732 | 0.832 | 0.262 | 0.289 | 0.659 | 0.556 | 0.481 | 0.574 | 0.744 | 0.992
4 | CC1(C)CCC(CN2CCN(c3ccc(C(=O)NS(=O)(=O)c4ccc(NCC5CCOCC5)c([N+](=O)[O-])c4)c(Oc4cnc5[nH]ccc5c4)c3)CC2)=C(c2ccc(Cl)cc2)C1 [Venetoclax] + C1CN(CCC1(C(=O)N[C@@H](CCO)C2=CC=C(C=C2)Cl)N)C3=NC=NC4=C3C=CN4 [Capivasertib] (first compound max 1 µM, 7x7, partner max 3 µM) | 0.23 | 0.123 | 0.178 | 0.422 | 0.224 | 0.111 | 0.161 | 0.134 | 0.547 | 0.25 | 0.214 | 0.551 | 0.209 | 0.334 | 0.0982 | 0.36 | 0.207 | 0.373 | 0.557 | 0.978
5 | COc1cccc(OCCCN)c1-c1cc(Nc2cnc(C#N)cn2)n[nH]1 [Prexasertib] + Cc1cc2ncnn2cc1Nc1ncc2c(n1)n(C1CCOCC1)c(=O)n2C [AZD7648] (first compound max 1 µM, 7x7, partner max 10 µM) | 0.609 | 0.321 | 0.772 | 0.531 | 0.389 | 0.327 | 0.784 | 0.462 | 0.882 | 0.706 | 0.748 | 0.919 | 0.315 | 0.438 | 0.429 | 0.772 | 0.685 | 0.512 | 0.823 | 0.858
6 | CC1(C)CCC(CN2CCN(c3ccc(C(=O)NS(=O)(=O)c4ccc(NCC5CCOCC5)c([N+](=O)[O-])c4)c(Oc4cnc5[nH]ccc5c4)c3)CC2)=C(c2ccc(Cl)cc2)C1 [Venetoclax] + C[C@@H]1COCCN1C2=NC(=NC(=C2)C3(CC3)[S@](=N)(=O)C)C4=C5C=CNC5=NC=C4 [AZD6738] (first compound max 1 µM, 7x7, partner max 10 µM) | 0.585 | 0.169 | 0.269 | 0.591 | 0.368 | 0.461 | 0.48 | 0.472 | 0.92 | 0.592 | 0.642 | 0.757 | 0.288 | 0.371 | 0.418 | 0.823 | 0.624 | 0.35 | 0.769 | 0.527
7 | CC1(C)CCC(CN2CCN(c3ccc(C(=O)NS(=O)(=O)c4ccc(NCC5CCOCC5)c([N+](=O)[O-])c4)c(Oc4cnc5[nH]ccc5c4)c3)CC2)=C(c2ccc(Cl)cc2)C1 [Venetoclax] + Cc1cc2ncnn2cc1Nc1ncc2c(n1)n(C1CCOCC1)c(=O)n2C [AZD7648] (first compound max 1 µM, 7x7, partner max 10 µM) | 0.235 | 0.159 | 0.204 | 0.39 | 0.24 | 0.192 | 0.196 | 0.152 | 0.401 | 0.26 | 0.221 | 0.444 | 0.209 | 0.226 | 0.126 | 0.41 | 0.0935 | 0.32 | 0.515 | 0.229
8 | Cc1cc2ncnn2cc1Nc1ncc2c(n1)n(C1CCOCC1)c(=O)n2C [AZD7648] + CN(C)CCCOc1ccc(-c2ccc3ncc4c(c3c2)n(C2CCOCC2)c(=O)n4C)cn1 [AZD0156] (first compound max 10 µM, 7x7, partner max 1 µM) | 0.219 | 0.186 | 0.129 | 0.566 | 0.241 | 0.207 | 0.116 | 0.187 | 0.372 | 0.311 | 0.366 | 0.34 | 0.192 | 0.243 | 0.23 | 0.275 | 0.239 | 0.501 | 0.237 | 0.389
9 | COc1cccc2c1C(=O)c1c(O)c3c(c(O)c1C2=O)C[C@@](O)(C(=O)CO)C[C@@H]3O[C@H]1C[C@H](N)[C@H](O)[C@H](C)O1 [Doxorubicin] + Cc1cc2ncnn2cc1Nc1ncc2c(n1)n(C1CCOCC1)c(=O)n2C [AZD7648] (first compound max 1 µM, 7x7, partner max 10 µM) | 0.303 | 0.431 | 0.564 | 0.95 | 0.512 | 0.405 | 0.426 | 0.534 | 0.904 | 0.546 | 0.563 | 0.905 | 0.588 | 0.295 | 0.76 | 0.724 | 0.376 | 0.64 | 0.455 | 0.922
10 | Cc1cc2ncnn2cc1Nc1ncc2c(n1)n(C1CCOCC1)c(=O)n2C [AZD7648] + O=C(c1cc(Cc2n[nH]c(=O)c3ccccc23)ccc1F)N1CCN(C(=O)C2CC2)CC1 [Olaparib] (first compound max 10 µM, 7x7, partner max 10 µM) | 0.259 | 0.0535 | 0.119 | 0.572 | 0.0374 | 0.18 | 0.145 | 0.188 | 0.305 | 0.28 | 0.383 | 0.433 | 0.0842 | 0.361 | 0.181 | 0.24 | 0.0469 | 0.313 | 0.231 | 0.339
11 | CC1(C)CCC(CN2CCN(c3ccc(C(=O)NS(=O)(=O)c4ccc(NCC5CCOCC5)c([N+](=O)[O-])c4)c(Oc4cnc5[nH]ccc5c4)c3)CC2)=C(c2ccc(Cl)cc2)C1 [Venetoclax] + CN(C)CCCOc1ccc(-c2ccc3ncc4c(c3c2)n(C2CCOCC2)c(=O)n4C)cn1 [AZD0156] (first compound max 1 µM, 7x7, partner max 1 µM) | 0.358 | 0.177 | 0.135 | 0.269 | 0.219 | 0.192 | 0.119 | 0.116 | 0.494 | 0.156 | 0.246 | 0.361 | 0.174 | 0.232 | 0.21 | 0.42 | 0.164 | 0.344 | 0.525 | 0.221
12 | CCN(CCO)CCCOc1ccc2c(Nc3cc(CC(=O)Nc4cccc(F)c4)[nH]n3)ncnc2c1 [AZD2811] + O=C(c1cc(Cc2n[nH]c(=O)c3ccccc23)ccc1F)N1CCN(C(=O)C2CC2)CC1 [Olaparib] (first compound max 1 µM, 7x7, partner max 10 µM) | 0.406 | 0.237 | 0.179 | 0.206 | 0.147 | 0.318 | 0.147 | 0.213 | 0.289 | 0.269 | 0.201 | 0.294 | 0.242 | 0.238 | 0.513 | 0.259 | 0.192 | 0.233 | 0.295 | 0.291
